According to paper PMC7395068, “The evolution of strategies to minimise the risk of human drug-induced liver injury (DILI) in drug discovery and development” (Archives of Toxicology, 2020):
Like-named read-outs stand apart in the source and are kept apart here.

Tests used:
[1] = Plasma free fraction (fu) and unbound Cmax (Cmax,u); type: in vitro ADME, human; conditions: unbound plasma Cmax
human hepatocytes = conditions: cited from earlier work; for Structural based (HCI): In vitro Assay, ref Xu 2008
[2] = test system: THLE or HepG2 cells, isolated mitochondria, BSEP; conditions: cited from earlier work
[3] = test system: HepG2 C3A spheroid, BSEP, Glu/Gal in HepG2 cells, bioactivation; conditions: Bayesian modeling; ref Williams et al. 2019; cited from earlier work
[4] = read-out: Human plasma Cmax; total plasma Cmax.tot, median of 9 literature references; cited from earlier work
[5] = plasma free fraction; cited from earlier work
hLiMTs = test: Combined HCI (HCS) and cellular ATP 3D assay in hLiMTs; conditions: for minimal effective concentration / AC50: Homo sapiens; for hLiMTs <25x Avg Cmax ATP / hLiMTs <100x Avg Cmaxu ATP: ATP endpoint; for hLiMTs <25x Avg Cmax ATP / hLiMTs <25x Avg Cmax HCS / hLiMTs <25x Avg Cmax All: cut-off <25x Avg Cmax; for hLiMTs <100x Avg Cmaxu ATP / hLiMTs <100x Avg Cmaxu HCS / hLiMTs <100x Avg Cmaxu All: cut-off <100x Avg Cmaxu; for hLiMTs <25x Avg Cmax HCS / hLiMTs <100x Avg Cmaxu HCS: HCS endpoints; for hLiMTs <25x Avg Cmax All: all endpoints (ATP and HCS); for hLiMTs Cmax max All / hLiMTs Cmax min All / hLiMTs <10 uM All / hLiMTs <100x Avg Cmaxu All: all endpoints; for hLiMTs Cmax max All: Cmax max used; for hLiMTs Cmax min All: Cmax min used; for hLiMTs <10 uM All: cut-off <10 uM
HepaRG spheroids = test: Combined HCI (HCS) and cellular ATP 3D assay in HepaRG spheroids; conditions: for HepaRG <25x Avg Cmax ATP / HepaRG <100x Avg Cmaxu ATP: ATP endpoint; for HepaRG <25x Avg Cmax ATP / HepaRG <25x Avg Cmax HCS / HepaRG <25x Avg Cmax All: cut-off <25x Avg Cmax; for HepaRG <100x Avg Cmaxu ATP / HepaRG <100x Avg Cmaxu HCS / HepaRG <100x Avg Cmaxu All: cut-off <100x Avg Cmaxu; for HepaRG <25x Avg Cmax HCS / HepaRG <100x Avg Cmaxu HCS: HCS endpoints; for HepaRG <25x Avg Cmax All: all endpoints (ATP and HCS); for HepaRG Cmax max All / HepaRG Cmax min All / HepaRG <10 uM All / HepaRG <100x Avg Cmaxu All: all endpoints; for HepaRG Cmax max All: Cmax max used; for HepaRG Cmax min All: Cmax min used; for HepaRG <10 uM All: cut-off <10 uM; for AC50 / minimal effective concentration: Homo sapiens; for HepaRG <25x Avg Cmax ATP / HepaRG <100x Avg Cmaxu ATP / HepaRG <25x Avg Cmax HCS / HepaRG <100x Avg Cmaxu HCS / HepaRG <25x Avg Cmax All / HepaRG Cmax max All / HepaRG Cmax min All / HepaRG <10 uM All / HepaRG <100x Avg Cmaxu All / AC50 / minimal effective concentration: HepaRG
PHH spheroids = conditions: In vitro Assay; ref Vorrink 2018; cited from earlier work
[6] = test system: HepG2 cells, primary human hepatocytes; conditions: In vitro Assay; ref Garside 2014; cited from earlier work
[7] = test system: isolated mouse liver mitochondria; conditions: In vitro Assay; ref Porceddu 2012; cited from earlier work
[8] = Modeled in vitro assays (cytotoxicity, mitochondrial dysfunction, BSEP), ref Aleo et al. 2019
[9] = Microtissue model structural based (HCI), combined HCS and ATP, MEC < 25 × Cmax.tot cut-off

Human plasma Cmax,u [1] | hLiMTs <25x Avg Cmax ATP (hLiMTs) | hLiMTs <100x Avg Cmaxu ATP (hLiMTs) | hLiMTs <25x Avg Cmax HCS (hLiMTs) | hLiMTs <100x Avg Cmaxu HCS (hLiMTs) | hLiMTs <25x Avg Cmax All (hLiMTs) | hLiMTs Cmax max All (hLiMTs) | hLiMTs Cmax min All (hLiMTs) | hLiMTs <10 uM All (hLiMTs) | hLiMTs <100x Avg Cmaxu All (hLiMTs) | HepaRG <25x Avg Cmax ATP (HepaRG spheroids) | HepaRG <100x Avg Cmaxu ATP (HepaRG spheroids) | HepaRG <25x Avg Cmax HCS (HepaRG spheroids) | HepaRG <100x Avg Cmaxu HCS (HepaRG spheroids) | HepaRG <25x Avg Cmax All (HepaRG spheroids) | HepaRG Cmax max All (HepaRG spheroids) | Compound | Structural based (HCI) (human hepatocytes) | Cmax [4] | fu [5] | minimal effective concentration (hLiMTs; read-out: HCS endpoint MEC) | other results
34 nM | -ve | -ve | -ve | -ve | -ve | -ve | -ve | -ve | -ve | -ve | -ve | -ve | -ve | -ve | -ve | Cc1ccc(N(CC2=NCCN2)c2cccc(O)c2)cc1 [phentolamine] | -VE | 75 nM | 0.460 | 87.4 µM | DILI in vitro assay prediction, Xu (2008) (human hepatocytes; Structural based (HCI), human hepatocytes, ref Xu et al. 2008): -VE; Partition Hybrid HRM Score ([2]; In vitro Assay, ref Aleo 2019): -VE; Ro2 Hybrid HRM Score ([2]; In vitro Assay, ref Aleo 2019): -VE; Partition Hybrid HRM Score ≥4, Aleo (2019) [2, 8]: -VE; Partition Hybrid HRM Score ≥8, Aleo (2019) [2, 8]: -VE; Rule of Two hybrid HRM Score ≥3, Aleo (2019) [2, 8]: -VE; Rule of Two hybrid HRM Score ≥8, Aleo (2019) [2, 8]: -VE; Bayesian Machine Learning DILI prediction, Williams (2019) [3]: -VE; DILI prediction hLiMTs (HCS-MEC) (hLiMTs; [9]): -VE; HepaRG Cmax min All (HepaRG spheroids): -ve; HepaRG <10 uM All (HepaRG spheroids): -ve; HepaRG <100x Avg Cmaxu All (HepaRG spheroids): -ve; AC50 (HepaRG spheroids; read-out: ATP endpoint AC50): 35.2 µM; minimal effective concentration (HepaRG spheroids; read-out: ATP endpoint MEC): 29.3 µM; AC50 (HepaRG spheroids; read-out: HCS endpoint AC50): 63 µM; minimal effective concentration (HepaRG spheroids; read-out: HCS endpoint MEC): 18.1 µM; DILI prediction HepaRG spheroids (HCS-MEC) (HepaRG spheroids; [9]): -VE
3 nM | +ve | -ve | +ve | -ve | +ve | +ve | +ve | +ve (<10 uM) | -ve | -ve | -ve | +ve | -ve | +ve | +ve | CC/C(=C(\c1ccccc1)c1ccc(OCCN(C)C)cc1)c1ccccc1 [tamoxifen] | -VE | 320 nM | 0.010 | 1.97 µM | hLiMTs ATP <20 x Cmax (PHH spheroids): +VE (IC20 < 20 × Cmax.tot cut-off); Cluster 1-6 +VE Assay [6]: +VE; in vitro data EC2<=1x Cmax [7]: +VE; in vitro data EC20<=2uM [7]: +VE; AC50 (hLiMTs; read-out: ATP endpoint AC50): 6.13 µM; minimal effective concentration (hLiMTs; read-out: ATP endpoint MEC): 3.93 µM; AC50 (hLiMTs; read-out: HCS endpoint AC50): 7.49 µM; HepaRG Cmax min All (HepaRG spheroids): +ve; HepaRG <10 uM All (HepaRG spheroids): +ve (<10 uM); HepaRG <100x Avg Cmaxu All (HepaRG spheroids): -ve; AC50 (HepaRG spheroids; read-out: ATP endpoint AC50): 12.7 µM; minimal effective concentration (HepaRG spheroids; read-out: ATP endpoint MEC): 10.8 µM; AC50 (HepaRG spheroids; read-out: HCS endpoint AC50): 16.7 µM; minimal effective concentration (HepaRG spheroids; read-out: HCS endpoint MEC): 3.52 µM
